Entries after “also recorded” stand apart in the source; their conditions may differ.
Tests used:
[1] = test system: T. b. brucei LUMP 1001; assay: CNS model, T. b. brucei LUMP 1001 infection in mice (Table 5); type: in vivo, Trypanosoma brucei brucei (in Swiss-Webster mice); conditions: control: Berenil 40 mg/kg on day 21
Source text: (§1) T. b. brucei EATRO 110 isolate was maintained as described (Bacchi, C. J., H. C. Nathan, S. H. Hutner, P. P. McCann and A. Sjoerdsma; Polyamine metabolism: a potential chemotherapeutic target in trypanosomes. Science 210: 332-334, 1980). It produces an acute, rapidly fatal parasitemia which is lethal to mice 3-5 days after inoculation. Two T. B. brucei strains, TREU 667 and LUMP 1001 developed by Jennings and coworkers (Jennings, F. W., D. D. Whitelaw and G. M. Urquhart; The relationship between duration of infection with Trypanosoma brucei in mice and the efficacy of chemotherapy. Parasitology 75: 143-153, 1977/Jennings, F. W. and G. D. Gray; Relapsed parasitemia following chemotherapy of chronic T. brucei infections in mice and its relation to cerebral trypanosomes; Contr. Microbiol. Immunol. 7 147-154, 1983) were used as CNS models. Both produce infections which are refractory to Berenil® (diminazene aceturate) and develop within 21 days after inoculation. They are not usually fatal until >40 days after inoculation. LUMP 1001 causes a more virulent CNS infection than TREU 667, and is regarded as more difficult to cure (Jennings, F. W. and G. D. Gray. Relapsed parasitemia following chemotherapy of chronic T. brucei infections in mice and its relation to cerebral trypanosomes. Contr. Microbiol. Immunol. 7 147-154, 1983).
The models for […] nervous system infections used TREU 667 and LUMP 1001 strains which were stored frozen and passaged once in rats before infection of mice. Maintenance and use of these screens were as described (Clarkson, A. B. Jr., C. J. Bacchi, G. H. Mellon, H. C. Nathan, P. P. McCann and A. Sjoerdsma. Efficacy of DFMO+blemoycin in a mouse model of central nervous system African trypanosomiasis. Proc. Natl. Acad. Sci. USA. 80: 5729-5733, 1983/Clarkson, A. B. Jr., E. J. Biene, C. J. Bacchi, P. P. McCann, S. H. Hutner and A. Sjoerdsma. New drug combination for experimental late stage African trypanosomiasis: DFMO with suramin. Am. J. Trop. Med. Hyg. 33: 1073-1077, 1984/Dube, D. K., G. Mpimbaza, A. C. Allison, E. Lederer and L. Rovis. Antitrypanosomal activity of sinefungin, Am. J. Trop. Med. Hyg. 32: 31-33, 1983/Fish, W. R., J. J. Marr, R. L. Berens, D. L. Looker, D. J. Nelson, S. LaFon and A. E. Balber. Inosine analogs as chemotherapeutic agents for African trypanosomes: metabolism in trypanosomes and efficacy in tissue culture. Anti-microb. Ag. Chemother. 27: 33-36, 1985/Clazer, R. I., and L. S. Lloyd. Effects of 8-azaadenosine and formycin on cell lethality and the synthesis and methylation of nucleic acids in human colon carcinoma cells in culture. Biochem. Pharmacol. 31: 3207-3214, 1982/Bacchi, C. J., H. C. Nathan, A. B. Clarkson, Jr., E. J. Bienen, A. J. Bitonti, P. P. McCann and A. Sjoerdsma. Activity of the ornithine decarboxylase inhibitors DL-α-difluoromethylornithine and monofluormethyldehydroornithine methylester alone and in combination with suramin against Trypanosoma brucei brucei central nervous system models, Am. J. Trop. Med. Hyg. (in press)). Briefly, groups of 100-120 mice were infected and the infections allowed to develop until day 21, when the animals were separated into groups of 10 and therapy commenced. Controls were treated with Berenil (40 mg/kg) on day 21. […] Parasitemia was followed by examining tail vein blood smears once weekly. Animals which had relapsed were removed from cages.

[2] = test system: T. b. brucei TREU 667; conditions: infection developed within 21 days; cited from earlier work
[3] = test system: T. b. brucei LUMP 1001; conditions: infection developed within 21 days; cited from earlier work
[4] = test system: T. b. brucei TREU 667; assay: CNS model, T. b. brucei TREU 667 infection in mice (Table 4); type: in vivo, Trypanosoma brucei brucei (in Swiss-Webster mice); conditions: for efficacy in CNS model in words: 100 mg/kg × 6 doses/days
Source text: as §1
The models for […] nervous system infections used TREU 667 and LUMP 1001 strains which were stored frozen and passaged once in rats before infection of mice. Maintenance and use of these screens were as described (Clarkson, A. B. Jr., C. J. Bacchi, G. H. Mellon, H. C. Nathan, P. P. McCann and A. Sjoerdsma. Efficacy of DFMO+blemoycin in a mouse model of central nervous system African trypanosomiasis. Proc. Natl. Acad. Sci. USA. 80: 5729-5733, 1983/Clarkson, A. B. Jr., E. J. Biene, C. J. Bacchi, P. P. McCann, S. H. Hutner and A. Sjoerdsma. New drug combination for experimental late stage African trypanosomiasis: DFMO with suramin. Am. J. Trop. Med. Hyg. 33: 1073-1077, 1984/Dube, D. K., G. Mpimbaza, A. C. Allison, E. Lederer and L. Rovis. Antitrypanosomal activity of sinefungin, Am. J. Trop. Med. Hyg. 32: 31-33, 1983/Fish, W. R., J. J. Marr, R. L. Berens, D. L. Looker, D. J. Nelson, S. LaFon and A. E. Balber. Inosine analogs as chemotherapeutic agents for African trypanosomes: metabolism in trypanosomes and efficacy in tissue culture. Anti-microb. Ag. Chemother. 27: 33-36, 1985/Clazer, R. I., and L. S. Lloyd. Effects of 8-azaadenosine and formycin on cell lethality and the synthesis and methylation of nucleic acids in human colon carcinoma cells in culture. Biochem. Pharmacol. 31: 3207-3214, 1982/Bacchi, C. J., H. C. Nathan, A. B. Clarkson, Jr., E. J. Bienen, A. J. Bitonti, P. P. McCann and A. Sjoerdsma. Activity of the ornithine decarboxylase inhibitors DL-α-difluoromethylornithine and monofluormethyldehydroornithine methylester alone and in combination with suramin against Trypanosoma brucei brucei central nervous system models, Am. J. Trop. Med. Hyg. (in press)). Briefly, groups of 100-120 mice were infected and the infections allowed to develop until day 21, when the animals were separated into groups of 10 and therapy commenced. Controls were treated with Berenil (40 mg/kg) on day 21. These always relapsed 40-70 days after treatment. Parasitemia was followed by examining tail vein blood smears once weekly. Animals which had relapsed were removed from cages. TREU 667 infections were followed >225 days after inoculation and LUMP 1001 were followed >280 days, as determined by the relapse pattern in previous work (Bacchi, C. J., H. C. Nathan, A. B. Clarkson, Jr., E. J. Bienen, A. J. Bitonti, P. P. McCann and A. Sjoerdsma. Activity of the ornithine decarboxylase inhibitors DL-α-difluoromethylornithine and monofluormethyldehydroornithine methylester alone and in combination with suramin against Trypanosoma brucei brucei central nervous system models. Am. J. Trop. Med. Hyg. (in press)). […]

[5] = test system: Pneumocystis Carinii; conditions: tissue culture; cited from earlier work
[6] = test system: T. cruzi; conditions: previous studies; cited from earlier work
[7] = test system: T. brucei subsp.; conditions: cited from earlier work
[8] = test system: Trypanosoma brucei rhodesiense; conditions: bone marrow tissue culture system; cited from earlier work
[9] = test system: Leishmania spp; conditions: previous studies; cited from earlier work
[10] = test system: mammalian cells; conditions: cited from earlier work
[11] = test system: Trypanosoma brucei gambiense; conditions: bone marrow tissue culture system; cited from earlier work
[12] = test system: T. b. brucei EATRO 110; assay: Drug screen, acute EATRO 110 mouse infection (Tables 1, 3); type: in vivo, Trypanosoma brucei brucei (in Swiss-Webster mice); conditions: for activity in the acute (short term) EATRO 110 model, in words: text summary
Source text: as §1
(§2) Swiss-Webster (25-30 g) mice were used throughout. In the EATRO 110 model, groups of 100 mice were infected (10^5 trypanosomes/mouse) and the infection was allowed to develop 24 hours before commencing therapy. Animals were divided into groups of 5 before treatment. Cured animals survived >30 days beyond deaths of controls. All compounds were administered by i.p. injection.
Other methods as in Table 1.

[13] = test system: mouse L cells; conditions: cited from earlier work
[14] = test system: African trypanosomes; conditions: previous studies; cited from earlier work
[15] = in vivo
Experimental: as §2

[16] = test system: human macrophages; conditions: cited from earlier work
[17] = test system: human colon carcinoma cells; conditions: cited from earlier work
[18] = Table 1, 2.5 mg/kg i.p. (9-DINO, sinefungin once daily for 3 days)
[19] = Table 1, 5 mg/kg i.p. (9-DINO, sinefungin once daily for 3 days)
[20] = Table 1, 10 mg/kg i.p. (9-DINO, sinefungin once daily for 3 days)
[21] = Table 1, 25 mg/kg i.p. (9-DINO, sinefungin once daily for 3 days)
[22] = Table 1, 50 mg/kg i.p. (9-DINO, sinefungin once daily for 3 days)
[23] = Table 1, 100 mg/kg i.p. (9-DINO, sinefungin once daily for 3 days)
[24] = Table 3, 0.05 mg/kg i.p. once daily for 3 days
[25] = Table 3, 0.1 mg/kg i.p. once daily for 3 days
[26] = Table 3, 0.25 mg/kg i.p. once daily for 3 days
[27] = Table 3, 0.5 mg/kg i.p. once daily for 3 days

N=C(N)c1ccc(N=NNc2ccc(C(=N)N)cc2)cc1 [Berenil, diminazene aceturate, reference compound]
relapse after treatment [1]: 40 to 70 days
response of infection in words [2]: refractory
response of infection in words [3]: refractory
relapse after treatment ([4]; control: Berenil 40 mg/kg on day 21): 40 to 70 days

O=c1[nH]cnc2c([C@@H]3O[C@H](CO)[C@@H](O)[C@H]3O)n[nH]c12 [Formycin B, 7-hydroxypyrazolo (4,3-d) pyrimidine ribonucleoside]
activity in words [5]: active
activity in words [6]: active
metabolism in words [7]: can be aminated by T. brucei subsp. and converted to analogs of ATP
activity in words [8]: active at very low concentrations; also recorded: somewhat more efficacious than 9-deazainosine
activity in words [9]: active
cleavage into ribose and purine analog moieties [10]: cannot be cleaved into ribose and purine analog moieties
metabolism in words [10]: metabolized by mammalian cells to its aminated analog formycin A
activity in words [11]: active at very low concentrations; also recorded: somewhat more efficacious than 9-deazainosine
curative / active dose range ([12]; EATRO 110, text): 5 to 100 mg/kg
# Cured/Total [12, 18]: 5/5
% Cured [12, 18]: 100%
# Cured/Total [12, 19]: 4/5
% Cured [12, 19]: 80%
# Cured/Total [12, 20]: 5/5
% Cured [12, 20]: 100%
# Cured/Total [12, 21]: 9/10
% Cured [12, 21]: 90%
# Cured/Total [12, 22]: 5/5
% Cured [12, 22]: 100%
# Cured/Total [12, 23]: 4/5
% Cured [12, 23]: 80%
# Cured/Total [12, 24]: 0/5
% Cured [12, 24]: 0%
# Cured/Total [12, 25]: 0/5
% Cured [12, 25]: 0%
# Cured/Total [12, 26]: 1/10
% Cured [12, 26]: 10%
# Cured/Total [12, 27]: 3/5
% Cured [12, 27]: 60%
relative activity of formycin B versus 9-DINO ([12]; comparison of activity ranges): > 10 X
activity in the acute (short term) EATRO 110 model, in words [12]: most active; also recorded: extremely active
activity in the acute (short term) EATRO 110 model, in words ([12]; listed as formycin B): greatest activity; also recorded: more active than 9-DINO
metabolism in words [13]: Mouse L cells can convert formycin B to the analogs of adenine nucleotides and incorporate the ATP analog into RNA
activity in words [14]: active
# Cured/Total ([4]; 5 mg/kg i.p., 7 days): 0/8
% Cured ([4]; 5 mg/kg i.p., 7 days): 0%
Avg. Day of Relapse (Range) ([4]; 5 mg/kg i.p., 7 days): 42 (37-49) Day
# Cured/Total ([4]; 10 mg/kg i.p., 7 days): 0/9
% Cured ([4]; 10 mg/kg i.p., 7 days): 0%
Avg. Day of Relapse (Range) ([4]; 10 mg/kg i.p., 7 days): 40 (37-41) Day
# Cured/Total ([4]; 25 mg/kg i.p., 7 days): 0/10
% Cured ([4]; 25 mg/kg i.p., 7 days): 0%
Avg. Day of Relapse (Range) ([4]; 25 mg/kg i.p., 7 days): 40 (37-68) Day
# Cured/Total ([4]; 50 mg/kg i.p., 6 days): 0/10
% Cured ([4]; 50 mg/kg i.p., 6 days): 0%
Avg. Day of Relapse (Range) ([4]; 50 mg/kg i.p., 6 days): 34 (23-35) Day
# Cured/Total ([4]; 100 mg/kg i.p., 6 days): 0/9
% Cured ([4]; 100 mg/kg i.p., 6 days): 0%
Avg. Day of Relapse (Range) ([4]; 100 mg/kg i.p., 6 days): 35 days
efficacy in CNS model in words [4]: not curative
efficacy in CNS model in words ([4]; listed as formycin B): failed to protect
toxicity in words ([15]; 100 mg/kg): toxicity was observed; also recorded: loss of hair
mortality ([15]; mouse, in vivo, ip, 100 mg/kg): 20%
dose at which toxicity appeared ([15]; short term model, Table 1): 100 mg/kg
conversion to adenine nucleotide analogs / incorporation in words [16]: this occurred in human macrophages

Nc1ncnc2c([C@@H]3O[C@H](CO)[C@@H](O)[C@H]3O)n[nH]c12 [formycin A]
incorporation into DNA in words [17]: can be incorporated into DNA
